Data as given in patent US6140504A, “Substituted intermediate compounds for the preparation of n-[(aminoiminomethyl or aminomethyl)phenyl]propyl amides” (Aventis Pharmaceuticals Products Inc., priority 2000, dated 2000).

Columns and labels:
Type in all cases: biochemical
Details in all cases: apparent Ki via Cheng-Prusoff from IC50; room temperature, 1 nM enzyme
thrombin = thrombin (Homo sapiens, UniProt P00734); test: Enzyme assay, inhibition of thrombin using purified enzyme (chromogenic peptide-p-nitroanilide substrate)
Experimental: All enzyme as says are carried out at room temperature in 96-well microtiter plates using a final enzyme concentration of 1 nM. The concentrations of factor Xa and thrombin are determined by active site titration and the concentrations of all other enzymes are based on the protein concentration supplied by the manufacturer. Compounds according to the invention are dissolved in DMSO, diluted with their respective buffers and assayed at a maximal final DMSO concentration of 1.25%. […] The enzyme reactions are initiated by the addition of substrate and the color developed from the hydrolysis of the peptide-p-nitroanilide substrates is monitored continuously for 5 minutes at 405 nm on a Vmax microplate reader (Molecular Devices). Under these conditions, less than 10% of the substrate is utilized in all assays. […] The apparent Ki values are then determined according to the Cheng-Prusoff equation (IC50=Ki[1+[S]J/Km]) assuming competitive inhibition kinetics.

trypsin = molecular target: T1, trypsin (Bos taurus, UniProt P00760); test: Enzyme assay, inhibition of trypsin using purified enzyme (chromogenic peptide-p-nitroanilide substrate)
T1 construct: factor Xa, thromb in, trypsin; purchased
T1 sequence (P00760 24-246): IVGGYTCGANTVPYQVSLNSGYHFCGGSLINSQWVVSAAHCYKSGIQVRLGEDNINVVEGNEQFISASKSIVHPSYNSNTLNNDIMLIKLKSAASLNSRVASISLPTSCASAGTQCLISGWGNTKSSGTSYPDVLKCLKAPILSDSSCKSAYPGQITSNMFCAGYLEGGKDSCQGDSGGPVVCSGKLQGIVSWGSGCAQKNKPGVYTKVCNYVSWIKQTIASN
Experimental: (§1) All enzyme as says are carried out at room temperature in 96-well microtiter plates using a final enzyme concentration of 1 nM. The concentrations of factor Xa and thrombin are determined by active site titration and the concentrations of all other enzymes are based on the protein concentration supplied by the manufacturer. Compounds according to the invention are dissolved in DMSO, diluted with their respective buffers and assayed at a maximal final DMSO concentration of 1.25%. Compound dilutions are added to wells containing buffer and enzyme and pre-equilibrated for between 5 and 30 minutes. The enzyme reactions are initiated by the addition of substrate and the color developed from the hydrolysis of the peptide-p-nitroanilide substrates is monitored continuously for 5 minutes at 405 nm on a Vmax microplate reader (Molecular Devices). Under these conditions, less than 10% of the substrate is utilized in all assays. […] The apparent Ki values are then determined according to the Cheng-Prusoff equation (IC50=Ki[1+[S]J/Km]) assuming competitive inhibition kinetics.

factor Xa = factor Xa (Homo sapiens, UniProt P00742); test: Enzyme assay, inhibition of factor Xa using purified enzyme (chromogenic peptide-p-nitroanilide substrate)
Experimental: as §1

Chain of factor Xa (P00742 235-488 limits assumed): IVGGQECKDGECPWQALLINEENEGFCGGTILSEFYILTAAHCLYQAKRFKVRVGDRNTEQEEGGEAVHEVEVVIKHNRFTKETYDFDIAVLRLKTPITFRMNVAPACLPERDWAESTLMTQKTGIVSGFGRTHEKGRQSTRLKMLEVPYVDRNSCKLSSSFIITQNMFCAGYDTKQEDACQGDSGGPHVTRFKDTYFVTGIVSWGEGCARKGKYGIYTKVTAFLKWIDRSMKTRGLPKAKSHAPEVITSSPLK
Chain of factor Xa (P00742 41-179 partner limits assumed): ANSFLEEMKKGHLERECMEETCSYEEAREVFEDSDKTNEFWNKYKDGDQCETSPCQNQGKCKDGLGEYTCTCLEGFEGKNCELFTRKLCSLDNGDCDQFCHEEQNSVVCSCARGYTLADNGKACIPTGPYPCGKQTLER

Row | Ki (thrombin) [nM] | Ki (trypsin) [nM] | Ki (factor Xa) [nM] | SMILES
1 | 477 | 129 | 94 | CC(=O)OCC(Cc1cccc(C(=N)N)c1)C(/C=C/c1ccccc1)NC(=O)c1ccc(-c2ccccc2)cc1 (stereo not drawn) [Compound 45]
2 | 1230 | 46 | 19 | COc1ccc(-c2ccc(C(=O)NC(CCc3ccccc3)C(COC(C)=O)Cc3cccc(C(=N)N)c3)cc2)cc1OC (stereo not drawn) [Compound 167]
3 | 2710 | 1720 | 27 | CN(C)Cc1cccc(-c2ccc(C(=O)NC(Cc3ccccc3)C(CO)Cc3cccc(C(=N)N)c3)cc2)c1 (stereo not drawn) [Compound 184]
